In patent publication US9108944B2, “Androgen receptor modulators and uses thereof” (ARAGON PHARMACEUTICALS, INC., priority 2010, dated 2015):

Tests used:
AR-VP16 [1] = target: T1, AR-VP16 (Homo sapiens, UniProt P10275); assay: AR-VP16 DNA Binding Assay, agonist mode (HepG2 cells); type: cell-based; settings: Emax >20x DMSO control = agonist
T1 sequence (P10275 560-920 limits assumed): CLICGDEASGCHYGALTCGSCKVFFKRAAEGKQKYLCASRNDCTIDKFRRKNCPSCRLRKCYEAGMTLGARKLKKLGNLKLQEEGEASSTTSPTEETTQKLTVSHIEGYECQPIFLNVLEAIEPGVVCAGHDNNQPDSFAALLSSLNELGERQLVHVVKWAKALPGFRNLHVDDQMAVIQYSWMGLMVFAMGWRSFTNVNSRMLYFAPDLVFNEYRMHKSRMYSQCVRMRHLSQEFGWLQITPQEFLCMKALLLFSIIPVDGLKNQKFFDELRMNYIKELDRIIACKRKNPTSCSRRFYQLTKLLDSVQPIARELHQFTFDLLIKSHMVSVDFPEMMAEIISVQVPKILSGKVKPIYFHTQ

AR-VP16 [2] = target: T1, AR-VP16; assay: AR-VP16 DNA Binding Assay, antagonist mode (HepG2 cells, 0.1 nM R1881); type: cell-based
Method in brief: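 Transfected HepG2 cells expressing AR-VP16 received serially diluted compound in charcoal-stripped-serum RPMI the day after transfection, with 0.1 nM R1881 (final) added only for antagonist testing. After 48 h, cells were lysed for measurement.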

| SMILES | ARVP16 DNA Binding Assay (Agonist mode): Agonist? (AR-VP16 [1]) | IC50 (AR-VP16 [2]) [nM] |
| --- | --- | --- |
| CNC(=O)c1ccc(N2C(=S)N(c3cnc(C#N)c(C)c3)C(=O)C23CCC3)c(F)c1 [Compound 104, 4-(7-(6-Cyano-5-methylpyridin-3-yl)-8-oxo-6-thioxo-5,7-diazaspiro[3.4]octan-5-yl)-3-fluoro-N-methylbenzamide] | No (Agonist defined as a compound whose Emax in the ARVP16 DNA Binding Assay (Agonist mode) is >20x DMSO control) | < 1000 |
| Cc1cc(N2C(=O)C3(CCC3)N(c3ccc(-c4cncc(F)c4)cc3)C2=S)cnc1C#N [Compound 105, 5-(5-(4-(5-Fluoropyridin-3-yl)phenyl)-8-oxo-6-thioxo-5,7-diazaspiro[3.4]octan-7-yl)-3-methylpicolinonitrile] | No (Agonist defined as a compound whose Emax in the ARVP16 DNA Binding Assay (Agonist mode) is >20x DMSO control) | < 1000 |
| CNC(=O)c1ccc(N2C(=S)N(c3cnc(C#N)c(C)c3)C(=O)C23CCC3)cc1C [Compound 106, 4-(7-(6-Cyano-5-methylpyridin-3-yl)-8-oxo-6-thioxo-5,7-diazaspiro[3.4]octan-5-yl)-N,2-dimethylbenzamide] | No (Agonist defined as a compound whose Emax in the ARVP16 DNA Binding Assay (Agonist mode) is >20x DMSO control) | < 1000 |
| CNC(=O)c1ccc(N2C(=S)N(c3cnc(C#N)c(C)c3)C(=O)C23CCC3)cc1OC [Compound 107, 4-(7-(6-Cyano-5-methylpyridin-3-yl)-8-oxo-6-thioxo-5,7-diazaspiro[3.4]octan-5-yl)-2-methoxy-N-methylbenzamide] | No (Agonist defined as a compound whose Emax in the ARVP16 DNA Binding Assay (Agonist mode) is >20x DMSO control) | < 1000 |
| Cc1cc(N2C(=O)C3(CCC3)N(c3ccc4c(c3)CNC4=O)C2=S)cnc1C#N [Compound 111, 3-Methyl-5-(8-oxo-5-(1-oxoisoindolin-5-yl)-6-thioxo-5,7-diazaspiro[3.4]octan-7-yl)picolinonitrile] | No (Agonist defined as a compound whose Emax in the ARVP16 DNA Binding Assay (Agonist mode) is >20x DMSO control) | > 1000 |
| CNC(=O)c1ccc(N2C(=S)N(c3cnc(C#N)c(C(F)F)c3)C(=O)C23CCC3)cc1F [Compound 113, 4-(7-(6-Cyano-5-(difluoromethyl)pyridin-3-yl)-8-oxo-6-thioxo-5,7-diazaspiro[3.4]octan-5-yl)-2-fluoro-N-methylbenzamide] | No (Agonist defined as a compound whose Emax in the ARVP16 DNA Binding Assay (Agonist mode) is >20x DMSO control) | < 1000 |
| N#Cc1ncc(N2C(=O)C3(CCC3)N(c3ccc(C4CCOCC4)cc3)C2=S)cc1C(F)(F)F [Compound 115, 5-(8-Oxo-5-(4-(tetrahydro-2H-pyran-4-yl)phenyl)-6-thioxo-5,7-diazaspiro[3.4]octan-7-yl)-3-(trifluoromethyl)picolinonitrile] | No (Agonist defined as a compound whose Emax in the ARVP16 DNA Binding Assay (Agonist mode) is >20x DMSO control) | < 1000 |
| Cc1cc(N2C(=O)C3(CCC3)N(c3ccc(-c4ccco4)cc3)C2=S)cnc1C#N [Compound 116, 5-(5-(4-(Furan-2-yl)phenyl)-8-oxo-6-thioxo-5,7-diazaspiro[3.4]octan-7-yl)-3-methylpicolinonitrile] | No (Agonist defined as a compound whose Emax in the ARVP16 DNA Binding Assay (Agonist mode) is >20x DMSO control) | < 1000 |
| O=C1N(c2ccc3nnc(C(F)(F)F)n3n2)C(=S)N(c2ccc(O)c(F)c2)C12CCC2 [Compound 117, 5-(3-Fluoro-4-hydroxyphenyl)-6-thioxo-7-(3-(trifluoromethyl)-[1,2,4]triazolo[4,3-b]pyridazin-6-yl)-5,7-diazaspiro[3.4]octan-8-one] | No (Agonist defined as a compound whose Emax in the ARVP16 DNA Binding Assay (Agonist mode) is >20x DMSO control) | > 1000 |
| CN(C)S(=O)(=O)c1ccc(N2C(=S)N(c3cnc(C#N)c(C(F)(F)F)c3)C(=O)C23CCC3)cc1 [Compound 121, 4-(7-(6-Cyano-5-(trifluoromethyl)pyridin-3-yl)-8-oxo-6-thioxo-5,7-diazaspiro[3.4]octan-5-yl)-N,N-dimethylbenzenesulfonamide] | No (Agonist defined as a compound whose Emax in the ARVP16 DNA Binding Assay (Agonist mode) is >20x DMSO control) | > 1000 |
| COC(=O)CCCc1ccc(N2C(=S)N(c3cnc(C#N)c(C(F)(F)F)c3)C(=O)C23CCC3)cc1 [Compound 122, Methyl 4-(4-(7-(6-cyano-5-(trifluoromethyl)pyridin-3-yl)-8-oxo-6-thioxo-5,7-diazaspiro[3.4]octan-5-yl)phenyl)butanoate] | No (Agonist defined as a compound whose Emax in the ARVP16 DNA Binding Assay (Agonist mode) is >20x DMSO control) | > 1000 |
| N#Cc1ncc(N2C(=O)C3(CCC3)N(c3ccc(F)c(O)c3)C2=S)cc1C(F)(F)F [Compound 123, 5-(5-(4-Fluoro-3-hydroxyphenyl)-8-oxo-6-thioxo-5,7-diazaspiro[3.4]octan-7-yl)-3-(trifluoromethyl)picolinonitrile] | No (Agonist defined as a compound whose Emax in the ARVP16 DNA Binding Assay (Agonist mode) is >20x DMSO control) | > 1000 |
| N#Cc1ncc(N2C(=O)C3(CCC3)N(c3ccc4ncoc4c3)C2=S)cc1C(F)(F)F [Compound 125, 5-(5-(Benzo[d]oxazol-6-yl)-8-oxo-6-thioxo-5,7-diazaspiro[3.4]octan-7-yl)-3-(trifluoromethyl)picolinonitrile] | No (Agonist defined as a compound whose Emax in the ARVP16 DNA Binding Assay (Agonist mode) is >20x DMSO control) | < 1000 |
| Cn1nccc1CCOc1ccc(N2C(=S)N(c3cnc(C#N)c(C(F)(F)F)c3)C(=O)C23CCC3)cc1F [Compound 126, 5-(5-(3-Fluoro-4-(2-(1-methyl-1H-pyrazol-5-yl)ethoxy)phenyl)-8-oxo-6-thioxo-5,7-diazaspiro[3.4]octan-7-yl)-3-(trifluoromethyl)picolinonitrile] | Yes (Agonist defined as a compound whose Emax in the ARVP16 DNA Binding Assay (Agonist mode) is >20x DMSO control) | < 1000 |
| N#Cc1ncc(N2C(=O)C3(CCC3)N(c3ccc(OCc4ccccc4)c(F)c3)C2=S)cc1C(F)(F)F [Compound 128, 5-(5-(4-(Benzyloxy)-3-fluorophenyl)-8-oxo-6-thioxo-5,7-diazaspiro[3.4]octan-7-yl)-3-(trifluoromethyl)picolinonitrile] | No (Agonist defined as a compound whose Emax in the ARVP16 DNA Binding Assay (Agonist mode) is >20x DMSO control) | < 1000 |
| N#Cc1ncc(N2C(=O)C3(CCC3)N(c3ccc(OCCc4ccccn4)c(F)c3)C2=S)cc1C(F)(F)F [Compound 130, 5-(5-(3-Fluoro-4-(2-(pyridin-2-yl)ethoxy)phenyl)-8-oxo-6-thioxo-5,7-diazaspiro[3.4]octan-7-yl)-3-(trifluoromethyl)picolinonitrile] | No (Agonist defined as a compound whose Emax in the ARVP16 DNA Binding Assay (Agonist mode) is >20x DMSO control) | < 1000 |
